We go through three compounds from patent US8809586B2, “Modafinil compositions” (priority 2004, dated 2014).

The nature of this data set: Solubility measured from an isopropyl acetate slurry, by HPLC. The settings on record: solid from solubility samples dried under nitrogen, characterized by PXRD and thermal microscopy.
For `NC(=O)C[S@@+]([O-])C(c1ccccc1)c1ccccc1` [R-(−)-modafinil Form III, R-(−)-2-[(Diphenylmethyl)sulfinyl]acetamide], the “Form conversion during solubility procedure” value is listed as “Form conversion was not observed”.

For the compound `NC(=O)C[S@@+]([O-])C(c1ccccc1)c1ccccc1` [R-(−)-modafinil Form IV, R-(−)-2-[(Diphenylmethyl)sulfinyl]acetamide], the “Form conversion during solubility procedure” value is recorded as “Form conversion was not observed”.

As to `NC(=O)C[S@@+]([O-])C(c1ccccc1)c1ccccc1` [R-(−)-modafinil Form V, R-(−)-2-[(Diphenylmethyl)sulfinyl]acetamide], the “Form conversion during solubility procedure” value was “Form conversion was not observed”.
